Measured values from PMC9481151, “Discovery of new symmetrical and asymmetrical nitrile-containing 1,4-dihydropyridine derivatives as dual kinases and P-glycoprotein inhibitors: synthesis, in vitro assays, and in silico studies” (Journal of Enzyme Inhibition and Medicinal Chemistry, 2022).

Legend:
Bacillus subtilis = assay: Agar well diffusion method; conditions: relative to ciprofloxacin
HT29 = assay: NCI single dose (10 µM) SRB screen; type: cell-based, human; conditions: colon cancer, 48 h
SF-295 = assay: NCI single dose (10 µM) SRB screen; type: cell-based, human; conditions: CNS cancer, 48 h
IGROV1 = assay: NCI single dose (10 µM) SRB screen; type: cell-based, human; conditions: ovarian cancer, 48 h
MDA-MB-435 = assay: NCI single dose (10 µM) SRB screen; type: cell-based, human; conditions: melanoma, 48 h
KM12 = assay: NCI single dose (10 µM) SRB screen; type: cell-based, human; conditions: colon cancer, 48 h
Aspergillus flavus = assay: Agar well diffusion method; conditions: relative to clotrimazole
OVCAR-5 = assay: NCI single dose (10 µM) SRB screen; type: cell-based, human; conditions: ovarian cancer, 48 h
SNB-75 = assay: NCI single dose (10 µM) SRB screen; type: cell-based, human; conditions: CNS cancer, 48 h
SK-OV-3 = assay: NCI single dose (10 µM) SRB screen; type: cell-based, human; conditions: ovarian cancer, 48 h
SW-620 = assay: NCI single dose (10 µM) SRB screen; type: cell-based, human; conditions: colon cancer, 48 h
SN12C = assay: NCI single dose (10 µM) SRB screen; type: cell-based, human; conditions: renal cancer, 48 h
NCI-H322M = assay: NCI single dose (10 µM) SRB screen; type: cell-based; conditions: non-small cell lung cancer, 48 h
HCT-116 = assay: NCI single dose (10 µM) SRB screen; type: cell-based, human; conditions: colon cancer, 48 h
RPMI-8226 = assay: NCI single dose (10 µM) SRB screen; type: cell-based, human; conditions: leukaemia, 48 h
MDA-MB-231 = assay: NCI single dose (10 µM) SRB screen; type: cell-based, human; conditions: breast cancer, 48 h
HOP-62 = assay: NCI single dose (10 µM) SRB screen; type: cell-based, human; conditions: non-small cell lung cancer, 48 h
OVCAR-8 = assay: NCI single dose (10 µM) SRB screen; type: cell-based, human; conditions: ovarian cancer, 48 h
HOP-92 = assay: NCI single dose (10 µM) SRB screen; type: cell-based, human; conditions: non-small cell lung cancer, 48 h
T-47D = assay: NCI single dose (10 µM) SRB screen; type: cell-based, human; conditions: breast cancer, 48 h
HCT-15 = assay: NCI single dose (10 µM) SRB screen; type: cell-based, human; conditions: colon cancer, 48 h
NCI-H23 = assay: NCI single dose (10 µM) SRB screen; type: cell-based, human; conditions: non-small cell lung cancer, 48 h
NCI/ADR-RES = assay: NCI single dose (10 µM) SRB screen; type: cell-based, human; conditions: ovarian cancer, 48 h
786-0 = assay: NCI single dose (10 µM) SRB screen; type: cell-based, human; conditions: renal cancer, 48 h
M14 = assay: NCI single dose (10 µM) SRB screen; type: cell-based, human; conditions: melanoma, 48 h
NCI-H460 = assay: NCI single dose (10 µM) SRB screen; type: cell-based, human; conditions: non-small cell lung cancer, 48 h
CCRF-CEM = assay: NCI single dose (10 µM) SRB screen; type: cell-based, human; conditions: leukaemia, 48 h
SNB-19 = assay: NCI single dose (10 µM) SRB screen; type: cell-based, human; conditions: CNS cancer, 48 h
SK-MEL-2 = assay: NCI single dose (10 µM) SRB screen; type: cell-based, human; conditions: melanoma, 48 h
UACC-257 = assay: NCI single dose (10 µM) SRB screen; type: cell-based, human; conditions: melanoma, 48 h
OVCAR-4 = assay: NCI single dose (10 µM) SRB screen; type: cell-based, human; conditions: ovarian cancer, 48 h
SF-539 = assay: NCI single dose (10 µM) SRB screen; type: cell-based, human; conditions: CNS cancer, 48 h
UO-31 = assay: NCI single dose (10 µM) SRB screen; type: cell-based, human; conditions: renal cancer, 48 h
CAKI-1 = assay: NCI single dose (10 µM) SRB screen; type: cell-based, human; conditions: renal cancer, 48 h
SR = assay: NCI single dose (10 µM) SRB screen; type: cell-based, human; conditions: leukaemia, 48 h
HL-60(TB) = assay: NCI single dose (10 µM) SRB screen; type: cell-based, human; conditions: leukaemia, 48 h
NCI-H522 = assay: NCI single dose (10 µM) SRB screen; type: cell-based, human; conditions: non-small cell lung cancer, 48 h
HCC-2998 = assay: NCI single dose (10 µM) SRB screen; type: cell-based, human; conditions: colon cancer, 48 h
UACC-62 = assay: NCI single dose (10 µM) SRB screen; type: cell-based, human; conditions: melanoma, 48 h
SK-MEL-5 = assay: NCI single dose (10 µM) SRB screen; type: cell-based, human; conditions: melanoma, 48 h
Pseudomonas aeruginosa = assay: Agar well diffusion method; conditions: relative to ciprofloxacin
PC-3 = assay: NCI single dose (10 µM) SRB screen; type: cell-based, human; conditions: prostate cancer, 48 h
ACHN = assay: NCI single dose (10 µM) SRB screen; type: cell-based, human; conditions: renal cancer, 48 h
NCI 60 cancer cell lines = assay: NCI single dose (10 µM) SRB screen, mean over panel; type: cell-based, human; conditions: mean over 60 cell lines, 48 h
COLO 205 = assay: NCI single dose (10 µM) SRB screen; type: cell-based, human; conditions: colon cancer, 48 h
MALME-3M = assay: NCI single dose (10 µM) SRB screen; type: cell-based, human; conditions: melanoma, 48 h
NCI-H226 = assay: NCI single dose (10 µM) SRB screen; type: cell-based, human; conditions: non-small cell lung cancer, 48 h
BT-549 = assay: NCI single dose (10 µM) SRB screen; type: cell-based, human; conditions: breast cancer, 48 h
MCF7 = assay: NCI single dose (10 µM) SRB screen; type: cell-based, human; conditions: breast cancer, 48 h
SK-MEL-28 = assay: NCI single dose (10 µM) SRB screen; type: cell-based, human; conditions: melanoma, 48 h
A549/ATCC = assay: NCI single dose (10 µM) SRB screen; type: cell-based, human; conditions: non-small cell lung cancer, 48 h
DU-145 = assay: NCI single dose (10 µM) SRB screen; type: cell-based, human; conditions: prostate cancer, 48 h
EKVX = assay: NCI single dose (10 µM) SRB screen; type: cell-based, human; conditions: non-small cell lung cancer, 48 h
K-562 = assay: NCI single dose (10 µM) SRB screen; type: cell-based, human; conditions: leukaemia, 48 h
SF-268 = assay: NCI single dose (10 µM) SRB screen; type: cell-based, human; conditions: CNS cancer, 48 h
TK-10 = assay: NCI single dose (10 µM) SRB screen; type: cell-based, human; conditions: renal cancer, 48 h
MOLT-4 = assay: NCI single dose (10 µM) SRB screen; type: cell-based, human; conditions: leukaemia, 48 h
HS578T = assay: NCI single dose (10 µM) SRB screen; type: cell-based, human; conditions: breast cancer, 48 h
U251 = assay: NCI single dose (10 µM) SRB screen; type: cell-based, human; conditions: CNS cancer, 48 h
Staphylococcus aureus = assay: Agar well diffusion method; conditions: relative to ciprofloxacin
A498 = assay: NCI single dose (10 µM) SRB screen; type: cell-based, human; conditions: renal cancer, 48 h
OVCAR-3 = assay: NCI single dose (10 µM) SRB screen; type: cell-based, human; conditions: ovarian cancer, 48 h
MDA-MB-468 = assay: NCI single dose (10 µM) SRB screen; type: cell-based, human; conditions: breast cancer, 48 h
RXF 393 = assay: NCI single dose (10 µM) SRB screen; type: cell-based, human; conditions: renal cancer, 48 h
LOX IMVI = assay: NCI single dose (10 µM) SRB screen; type: cell-based, human; conditions: melanoma, 48 h
Escherichia coli = assay: Agar well diffusion method; conditions: relative to ciprofloxacin
Candida albicans = assay: Agar well diffusion method; conditions: relative to clotrimazole

CCOC(=O)C1=C(C)NC(C)=C(C(=O)OCC(C)C)C1c1cccc(C#N)c1 (racemic) [Compound 2i, (±)-3-Ethyl 5-isobutyl 4-(3-cyanophenyl)-2,6-dimethyl-1,4-dihydropyridine-3,5-dicarboxylate]
% activity index, B. subtilis (Bacillus subtilis): – (Values below 25 are of limited value and not shown as they refer either to inactive or non-diffusing compounds) | GI% HT29 (HT29): – (Only GI% ≥ 10 are shown) | GI% SF-295 (SF-295): 31% | GI% IGROV1 (IGROV1): – (Only GI% ≥ 10 are shown) | GI% MDA-MB-435 (MDA-MB-435): – (Only GI% ≥ 10 are shown) | GI% KM12 (KM12): – (Only GI% ≥ 10 are shown) | % activity index, A. flavus (Aspergillus flavus): – (Values below 25 are of limited value and not shown as they refer either to inactive or non-diffusing compounds) | GI% OVCAR-5 (OVCAR-5): – (Only GI% ≥ 10 are shown) | GI% SNB-75 (SNB-75): 18% | GI% SK-OV-3 (SK-OV-3): – (Only GI% ≥ 10 are shown) | GI% SW-620 (SW-620): – (Only GI% ≥ 10 are shown) | GI% SN12C (SN12C): – (Only GI% ≥ 10 are shown) | GI% NCI-H322M (NCI-H322M): – (Only GI% ≥ 10 are shown) | GI% HCT-116 (HCT-116): 23% | GI% RPMI-8226 (RPMI-8226): – (Only GI% ≥ 10 are shown) | GI% MDA-MB-231 (MDA-MB-231): – (Only GI% ≥ 10 are shown) | GI% HOP-62 (HOP-62): – (Only GI% ≥ 10 are shown) | GI% OVCAR-8 (OVCAR-8): – (Only GI% ≥ 10 are shown) | GI% HOP-92 (HOP-92): 18% | GI% T-47D (T-47D): 32% | GI% HCT-15 (HCT-15): 30% | GI% NCI-H23 (NCI-H23): 24% | GI% NCI/ADR-RES (NCI/ADR-RES): 22% | GI% 786-0 (786-0): 11% | GI% M14 (M14): – (Only GI% ≥ 10 are shown) | GI% NCI-H460 (NCI-H460): – (Only GI% ≥ 10 are shown) | GI% CCRF-CEM (CCRF-CEM): – (Only GI% ≥ 10 are shown) | GI% SNB-19 (SNB-19): – (Only GI% ≥ 10 are shown) | GI% SK-MEL-2 (SK-MEL-2): – (Only GI% ≥ 10 are shown) | GI% UACC-257 (UACC-257): – (Only GI% ≥ 10 are shown) | GI% OVCAR-4 (OVCAR-4): 12% | GI% SF-539 (SF-539): – (Only GI% ≥ 10 are shown) | GI% UO-31 (UO-31): – (Only GI% ≥ 10 are shown) | GI% CAKI-1 (CAKI-1): 35% | GI% SR (SR): 23% | GI% HL-60(TB) (HL-60(TB)): – (Only GI% ≥ 10 are shown) | GI% NCI-H522 (NCI-H522): 13% | GI% HCC-2998 (HCC-2998): – (Only GI% ≥ 10 are shown) | GI% UACC-62 (UACC-62): 27% | melting point: 120 to 121 °C | GI% SK-MEL-5 (SK-MEL-5): 12% | % activity index, P. aeruginosa (Pseudomonas aeruginosa): – (Values below 25 are of limited value and not shown as they refer either to inactive or non-diffusing compounds) | GI% PC-3 (PC-3): 29% | GI% ACHN (ACHN): – (Only GI% ≥ 10 are shown) | Mean GI% (NCI 60 cancer cell lines): 9% | GI% COLO 205 (COLO 205): – (Only GI% ≥ 10 are shown) | GI% MALME-3M (MALME-3M): – (Only GI% ≥ 10 are shown) | GI% NCI-H226 (NCI-H226): 22% | GI% BT-549 (BT-549): – (Only GI% ≥ 10 are shown) | GI% MCF7 (MCF7): 34% | GI% SK-MEL-28 (SK-MEL-28): – (Only GI% ≥ 10 are shown) | GI% A549/ATCC (A549/ATCC): 10% | GI% DU-145 (DU-145): – (Only GI% ≥ 10 are shown) | GI% EKVX (EKVX): 29% | GI% K-562 (K-562): 24% | GI% SF-268 (SF-268): – (Only GI% ≥ 10 are shown) | GI% TK-10 (TK-10): – (Only GI% ≥ 10 are shown) | GI% MOLT-4 (MOLT-4): 21% | GI% HS578T (HS578T): 13% | GI% U251 (U251): – (Only GI% ≥ 10 are shown) | % activity index, S. aureus (Staphylococcus aureus): – (Values below 25 are of limited value and not shown as they refer either to inactive or non-diffusing compounds) | GI% A498 (A498): – (Only GI% ≥ 10 are shown) | GI% OVCAR-3 (OVCAR-3): – (Only GI% ≥ 10 are shown) | GI% MDA-MB-468 (MDA-MB-468): 24% | GI% RXF 393 (RXF 393): 30% | GI% LOX IMVI (LOX IMVI): 20% | % activity index, E. coli (Escherichia coli): – (Values below 25 are of limited value and not shown as they refer either to inactive or non-diffusing compounds) | % activity index, C. albicans (Candida albicans): – (Values below 25 are of limited value and not shown as they refer either to inactive or non-diffusing compounds)
